According to ChEMBL document CHEMBL4507279, “Data for DCP probe BI-9627” (2021):

Key:
[1] = molecular target: Beta-3 adrenergic receptor (Homo sapiens) (UniProt P13945); details: Compound concentration 10.0 uM
[2] = molecular target: Tyrosine-protein kinase ZAP-70 (Homo sapiens) (UniProt P43403); details: Compound concentration 1000.0 nM
[3] = molecular target: Serine/threonine-protein kinase RIO1 (Homo sapiens) (UniProt Q9BRS2); details: Compound concentration 1000.0 nM
[4] = system: Mast/stem cell growth factor receptor Kit (Homo sapiens), P10721 [V559D]; details: Compound concentration 1000.0 nM
[5] = molecular target: TGF-beta receptor type-2 (Homo sapiens) (UniProt P37173); details: Compound concentration 1000.0 nM
[6] = molecular target: Cyclin-dependent kinase 18 (Homo sapiens) (UniProt Q07002); details: Compound concentration 1000.0 nM
[7] = molecular target: Rhodopsin kinase GRK7 (Homo sapiens) (UniProt Q8WTQ7); details: Compound concentration 1000.0 nM
[8] = molecular target: Serine/threonine-protein kinase 33 (Homo sapiens) (UniProt Q9BYT3); details: Compound concentration 1000.0 nM
[9] = molecular target: 5-hydroxytryptamine receptor 1D (Homo sapiens) (UniProt P28221); details: Compound concentration 10.0 uM
[10] = molecular target: Mitogen-activated protein kinase kinase kinase 7 (Homo sapiens) (UniProt O43318); details: Compound concentration 1000.0 nM
[11] = molecular target: Serine/threonine-protein kinase 17A (Homo sapiens) (UniProt Q9UEE5); details: Compound concentration 1000.0 nM
[12] = molecular target: Hepatocyte growth factor receptor (Homo sapiens) (UniProt P08581); details: Compound concentration 1000.0 nM
[13] = molecular target: Microtubule-associated serine/threonine-protein kinase 1 (Homo sapiens) (UniProt Q9Y2H9); details: Compound concentration 1000.0 nM
[14] = molecular target: cGMP-dependent protein kinase 2 (Homo sapiens) (UniProt Q13237); details: Compound concentration 1000.0 nM
[15] = molecular target: Cyclin-dependent kinase-like 3 (Homo sapiens) (UniProt Q8IVW4); details: Compound concentration 1000.0 nM
[16] = molecular target: Homeodomain-interacting protein kinase 2 (Homo sapiens) (UniProt Q9H2X6); details: Compound concentration 1000.0 nM
[17] = molecular target: Ribosomal protein S6 kinase alpha-3 (Homo sapiens) (UniProt P51812); details: Compound concentration 1000.0 nM
[18] = system: Receptor-type tyrosine-protein kinase FLT3 (Homo sapiens), P36888 [N841I]; details: Compound concentration 1000.0 nM
[19] = molecular target: Muscle, skeletal receptor tyrosine-protein kinase (Homo sapiens) (UniProt O15146); details: Compound concentration 1000.0 nM
[20] = molecular target: Sodium/hydrogen exchanger 2 (Homo sapiens, UniProt Q9UBY0); experiment: pHi change assay with SLC9A2
[21] = molecular target: Phosphatidylinositol 5-phosphate 4-kinase type-2 gamma (Homo sapiens) (UniProt Q8TBX8); details: Compound concentration 1000.0 nM
[22] = molecular target: Serine/threonine-protein kinase ULK1 (Homo sapiens) (UniProt O75385); details: Compound concentration 1000.0 nM
[23] = molecular target: Serine/threonine-protein kinase Nek9 (Homo sapiens) (UniProt Q8TD19); details: Compound concentration 1000.0 nM
[24] = molecular target: Citron Rho-interacting kinase (Homo sapiens) (UniProt O14578); details: Compound concentration 1000.0 nM
[25] = molecular target: Proto-oncogene tyrosine-protein kinase Src (Homo sapiens) (UniProt P12931); details: Compound concentration 1000.0 nM
[26] = molecular target: Myosin-IIIb (Homo sapiens) (UniProt Q8WXR4); details: Compound concentration 1000.0 nM
[27] = molecular target: Beta-adrenergic receptor kinase 1 (Homo sapiens) (UniProt P25098); details: Compound concentration 1000.0 nM
[28] = molecular target: Tyrosine-protein kinase Fer (Homo sapiens) (UniProt P16591); details: Compound concentration 1000.0 nM
[29] = molecular target: G protein-coupled receptor kinase 4 (Homo sapiens) (UniProt P32298); details: Compound concentration 1000.0 nM
[30] = molecular target: Serine/threonine-protein kinase Sgk3 (Homo sapiens) (UniProt Q96BR1); details: Compound concentration 1000.0 nM
[31] = molecular target: Casein kinase II subunit alpha (Homo sapiens) (UniProt P68400); details: Compound concentration 1000.0 nM
[32] = molecular target: Calcium-dependent protein kinase 1 (Plasmodium falciparum) (UniProt P62344); details: Compound concentration 1000.0 nM
[33] = molecular target: Serine/threonine-protein kinase tousled-like 2 (Homo sapiens) (UniProt Q86UE8); details: Compound concentration 1000.0 nM
[34] = molecular target: Serine/threonine-protein kinase PAK 2 (Homo sapiens) (UniProt Q13177); details: Compound concentration 1000.0 nM
[35] = molecular target: Serine/threonine-protein kinase D3 (Homo sapiens) (UniProt O94806); details: Compound concentration 1000.0 nM
[36] = molecular target: Tyrosine-protein kinase Tec (Homo sapiens) (UniProt P42680); details: Compound concentration 1000.0 nM
[37] = molecular target: Phosphatidylinositol 4-kinase beta (Homo sapiens) (UniProt Q9UBF8); details: Compound concentration 1000.0 nM
[38] = molecular target: Casein kinase II subunit alpha' (Homo sapiens) (UniProt P19784); details: Compound concentration 1000.0 nM
[39] = molecular target: Tyrosine-protein kinase JAK1 (Homo sapiens) (UniProt P23458); details: Compound concentration 1000.0 nM
[40] = system: Epidermal growth factor receptor (Homo sapiens), P00533 [L858R]; details: Compound concentration 1000.0 nM
[41] = system: Tyrosine-protein kinase ABL1 (Homo sapiens), P00519 [T315I]; details: Compound concentration 1000.0 nM
[42] = molecular target: Sigma intracellular receptor 2 (Homo sapiens) (UniProt Q5BJF2); details: Compound concentration 10.0 uM
[43] = molecular target: 5-hydroxytryptamine receptor 2C (Homo sapiens) (UniProt P28335); details: Compound concentration 10.0 uM
[44] = system: Tyrosine-protein kinase ABL1 (Homo sapiens), P00519 [F317L]; details: Compound concentration 1000.0 nM
[45] = molecular target: Insulin-like growth factor 1 receptor (Homo sapiens) (UniProt P08069); details: Compound concentration 1000.0 nM
[46] = molecular target: Maternal embryonic leucine zipper kinase (Homo sapiens) (UniProt Q14680); details: Compound concentration 1000.0 nM

Muscle, skeletal receptor tyrosine-protein kinase (Homo sapiens), sequence (O15146 whole entry): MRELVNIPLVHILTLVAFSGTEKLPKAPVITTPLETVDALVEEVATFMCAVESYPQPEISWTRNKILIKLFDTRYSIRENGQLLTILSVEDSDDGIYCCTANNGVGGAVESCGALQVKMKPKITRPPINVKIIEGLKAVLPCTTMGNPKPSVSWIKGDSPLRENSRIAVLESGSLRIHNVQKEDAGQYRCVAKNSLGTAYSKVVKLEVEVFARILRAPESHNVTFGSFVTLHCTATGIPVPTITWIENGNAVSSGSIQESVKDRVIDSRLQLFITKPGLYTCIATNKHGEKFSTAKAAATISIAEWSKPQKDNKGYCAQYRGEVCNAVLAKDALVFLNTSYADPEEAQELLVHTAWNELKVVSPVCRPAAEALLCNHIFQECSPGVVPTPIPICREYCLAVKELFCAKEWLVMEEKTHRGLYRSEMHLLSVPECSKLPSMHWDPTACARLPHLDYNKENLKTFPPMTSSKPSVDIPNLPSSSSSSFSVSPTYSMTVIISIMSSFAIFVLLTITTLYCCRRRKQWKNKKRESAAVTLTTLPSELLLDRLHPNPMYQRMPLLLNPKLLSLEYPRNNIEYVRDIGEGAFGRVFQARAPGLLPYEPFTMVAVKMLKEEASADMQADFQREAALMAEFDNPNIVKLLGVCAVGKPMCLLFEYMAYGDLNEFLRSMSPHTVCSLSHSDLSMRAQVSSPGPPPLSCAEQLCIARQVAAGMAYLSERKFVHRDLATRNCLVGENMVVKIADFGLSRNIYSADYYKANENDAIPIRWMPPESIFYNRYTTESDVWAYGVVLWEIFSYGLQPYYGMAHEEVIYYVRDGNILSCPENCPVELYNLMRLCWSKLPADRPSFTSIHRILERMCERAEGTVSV
Rhodopsin kinase GRK7 (Homo sapiens), sequence (Q8WTQ7 whole entry): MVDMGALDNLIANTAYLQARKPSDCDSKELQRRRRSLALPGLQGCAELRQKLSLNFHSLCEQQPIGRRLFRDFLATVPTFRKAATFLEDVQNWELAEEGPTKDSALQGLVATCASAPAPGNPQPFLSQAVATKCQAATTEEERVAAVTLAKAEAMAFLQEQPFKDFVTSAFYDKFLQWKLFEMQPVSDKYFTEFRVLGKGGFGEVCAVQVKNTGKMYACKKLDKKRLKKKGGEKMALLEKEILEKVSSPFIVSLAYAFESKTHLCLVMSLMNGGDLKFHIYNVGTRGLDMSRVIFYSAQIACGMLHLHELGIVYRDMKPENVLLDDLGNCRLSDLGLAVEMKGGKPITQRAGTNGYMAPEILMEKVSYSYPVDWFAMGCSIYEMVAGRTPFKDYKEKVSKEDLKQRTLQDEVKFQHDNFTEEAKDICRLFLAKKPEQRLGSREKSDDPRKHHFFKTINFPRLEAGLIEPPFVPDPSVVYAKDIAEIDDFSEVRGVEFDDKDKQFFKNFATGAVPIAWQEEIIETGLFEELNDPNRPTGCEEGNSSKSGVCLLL
Myosin-IIIb (Homo sapiens), sequence (Q8WXR4 whole entry): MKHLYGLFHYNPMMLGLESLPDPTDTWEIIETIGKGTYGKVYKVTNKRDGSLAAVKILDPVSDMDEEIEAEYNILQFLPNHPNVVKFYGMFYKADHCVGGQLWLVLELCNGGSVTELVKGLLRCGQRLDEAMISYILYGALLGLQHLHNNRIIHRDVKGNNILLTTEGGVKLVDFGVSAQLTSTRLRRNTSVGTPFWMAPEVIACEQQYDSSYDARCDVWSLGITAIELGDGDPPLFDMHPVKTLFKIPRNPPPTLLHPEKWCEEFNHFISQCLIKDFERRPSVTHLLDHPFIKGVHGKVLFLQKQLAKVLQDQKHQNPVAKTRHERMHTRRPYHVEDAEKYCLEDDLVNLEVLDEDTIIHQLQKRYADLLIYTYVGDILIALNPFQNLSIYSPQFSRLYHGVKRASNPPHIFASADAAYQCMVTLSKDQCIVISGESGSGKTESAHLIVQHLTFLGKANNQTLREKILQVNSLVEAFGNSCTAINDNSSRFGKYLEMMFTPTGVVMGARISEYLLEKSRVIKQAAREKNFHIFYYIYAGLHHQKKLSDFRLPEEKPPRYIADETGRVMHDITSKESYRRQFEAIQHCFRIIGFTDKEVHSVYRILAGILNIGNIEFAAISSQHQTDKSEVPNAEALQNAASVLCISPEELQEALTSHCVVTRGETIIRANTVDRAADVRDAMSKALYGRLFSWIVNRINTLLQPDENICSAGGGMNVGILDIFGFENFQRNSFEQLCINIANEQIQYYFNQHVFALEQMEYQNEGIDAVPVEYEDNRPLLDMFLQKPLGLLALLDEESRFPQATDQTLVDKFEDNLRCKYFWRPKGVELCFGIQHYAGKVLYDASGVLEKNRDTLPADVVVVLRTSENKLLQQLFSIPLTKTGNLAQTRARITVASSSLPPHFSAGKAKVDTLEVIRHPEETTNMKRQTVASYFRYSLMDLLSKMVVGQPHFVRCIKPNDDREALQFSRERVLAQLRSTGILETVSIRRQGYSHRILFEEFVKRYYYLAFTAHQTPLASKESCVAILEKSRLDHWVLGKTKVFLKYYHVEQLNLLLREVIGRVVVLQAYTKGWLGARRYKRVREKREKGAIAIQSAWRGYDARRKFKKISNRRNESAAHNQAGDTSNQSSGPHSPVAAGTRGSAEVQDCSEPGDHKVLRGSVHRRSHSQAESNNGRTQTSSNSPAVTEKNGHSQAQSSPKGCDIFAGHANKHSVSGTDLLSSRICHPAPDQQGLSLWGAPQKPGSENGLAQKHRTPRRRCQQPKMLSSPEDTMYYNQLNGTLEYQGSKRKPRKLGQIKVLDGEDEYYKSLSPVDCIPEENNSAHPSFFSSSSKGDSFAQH
Serine/threonine-protein kinase 33 (Homo sapiens), sequence (Q9BYT3 whole entry, looked up): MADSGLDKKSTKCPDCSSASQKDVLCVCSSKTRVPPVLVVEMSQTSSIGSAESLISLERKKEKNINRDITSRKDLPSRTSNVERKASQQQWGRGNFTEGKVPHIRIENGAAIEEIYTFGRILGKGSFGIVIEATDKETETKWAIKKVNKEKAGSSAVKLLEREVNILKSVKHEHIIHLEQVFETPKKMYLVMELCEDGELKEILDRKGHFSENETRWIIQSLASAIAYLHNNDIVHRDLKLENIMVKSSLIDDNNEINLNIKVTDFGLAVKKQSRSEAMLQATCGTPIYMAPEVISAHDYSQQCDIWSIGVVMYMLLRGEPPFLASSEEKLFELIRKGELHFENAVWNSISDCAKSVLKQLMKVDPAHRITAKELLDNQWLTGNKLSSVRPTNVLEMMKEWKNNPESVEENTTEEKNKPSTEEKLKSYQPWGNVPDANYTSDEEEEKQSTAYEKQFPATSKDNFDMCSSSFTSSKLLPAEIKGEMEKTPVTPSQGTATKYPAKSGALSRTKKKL
Calcium-dependent protein kinase 1 (Plasmodium falciparum), sequence (P62344 2-524 limits assumed): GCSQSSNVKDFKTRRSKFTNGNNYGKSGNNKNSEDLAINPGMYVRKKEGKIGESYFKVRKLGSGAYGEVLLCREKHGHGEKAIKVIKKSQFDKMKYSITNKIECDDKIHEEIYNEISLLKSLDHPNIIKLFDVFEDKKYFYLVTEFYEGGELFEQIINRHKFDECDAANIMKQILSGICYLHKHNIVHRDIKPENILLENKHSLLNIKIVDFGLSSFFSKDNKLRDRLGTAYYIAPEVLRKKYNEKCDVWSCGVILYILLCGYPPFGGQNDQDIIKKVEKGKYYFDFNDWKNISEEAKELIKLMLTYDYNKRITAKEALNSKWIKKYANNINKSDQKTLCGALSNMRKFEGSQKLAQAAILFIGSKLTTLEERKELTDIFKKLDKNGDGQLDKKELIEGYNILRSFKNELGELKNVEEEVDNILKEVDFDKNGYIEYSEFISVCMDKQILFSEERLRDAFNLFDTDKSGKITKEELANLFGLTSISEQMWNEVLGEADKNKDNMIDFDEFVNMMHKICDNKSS
Homeodomain-interacting protein kinase 2 (Homo sapiens), sequence (Q9H2X6 whole entry, looked up): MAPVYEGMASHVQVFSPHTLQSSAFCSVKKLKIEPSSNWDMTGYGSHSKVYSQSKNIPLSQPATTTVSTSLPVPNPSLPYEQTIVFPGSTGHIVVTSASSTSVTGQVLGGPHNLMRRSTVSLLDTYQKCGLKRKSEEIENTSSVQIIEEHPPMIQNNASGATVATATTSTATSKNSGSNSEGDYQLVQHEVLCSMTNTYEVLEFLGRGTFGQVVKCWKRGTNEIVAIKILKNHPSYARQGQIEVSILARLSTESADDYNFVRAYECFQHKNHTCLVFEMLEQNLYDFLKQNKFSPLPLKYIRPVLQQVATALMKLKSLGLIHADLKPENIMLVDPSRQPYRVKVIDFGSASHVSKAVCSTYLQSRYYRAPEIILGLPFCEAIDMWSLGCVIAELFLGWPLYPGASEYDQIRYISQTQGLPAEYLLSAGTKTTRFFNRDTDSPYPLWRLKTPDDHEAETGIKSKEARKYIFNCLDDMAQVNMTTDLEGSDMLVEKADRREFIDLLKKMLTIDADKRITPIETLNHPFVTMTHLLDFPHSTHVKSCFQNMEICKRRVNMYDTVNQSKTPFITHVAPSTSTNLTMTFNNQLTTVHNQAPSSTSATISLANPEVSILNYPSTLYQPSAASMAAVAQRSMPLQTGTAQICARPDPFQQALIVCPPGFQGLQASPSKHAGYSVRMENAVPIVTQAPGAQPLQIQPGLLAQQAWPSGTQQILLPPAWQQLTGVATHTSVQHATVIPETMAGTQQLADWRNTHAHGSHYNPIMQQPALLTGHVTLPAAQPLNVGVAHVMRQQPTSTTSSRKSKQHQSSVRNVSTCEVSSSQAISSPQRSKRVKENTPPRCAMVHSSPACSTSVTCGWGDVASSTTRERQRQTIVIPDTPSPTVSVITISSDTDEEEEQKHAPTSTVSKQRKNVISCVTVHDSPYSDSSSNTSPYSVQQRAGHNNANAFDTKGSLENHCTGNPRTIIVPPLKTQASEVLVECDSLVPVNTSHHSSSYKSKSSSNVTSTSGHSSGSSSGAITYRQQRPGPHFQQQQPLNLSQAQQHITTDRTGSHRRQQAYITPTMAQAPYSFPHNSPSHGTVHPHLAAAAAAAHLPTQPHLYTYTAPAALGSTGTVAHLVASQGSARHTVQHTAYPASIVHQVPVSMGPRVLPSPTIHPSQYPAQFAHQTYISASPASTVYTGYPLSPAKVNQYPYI

CC(=O)N1CCC(c2ccc(C(=O)NC3=NCCN3)cc2C(F)(F)F)CC1 [BI 0054]
inhibition [1]: 8.52% | residual activity [2]: 97% | residual activity [3]: 100% | residual activity [4]: 100% | residual activity [5]: 100% | residual activity [6]: 100% | residual activity [7]: 87% | residual activity [8]: 100% | inhibition [9]: 9.64% | residual activity [10]: 100% | residual activity [11]: 100% | residual activity [12]: 100% | residual activity [13]: 87% | residual activity [14]: 100% | residual activity [15]: 100% | residual activity [16]: 100% | residual activity [17]: 99% | residual activity [18]: 94% | residual activity [19]: 90% | IC50 [20]: > 10 µM (not active) | residual activity [21]: 94% | residual activity [22]: 85% | residual activity [23]: 100% | residual activity [24]: 100% | residual activity [25]: 99% | residual activity [26]: 100% | residual activity [27]: 77% | residual activity [28]: 93% | residual activity [29]: 100% | residual activity [30]: 82% | residual activity [31]: 86% | residual activity [32]: 90% | residual activity [33]: 100% | residual activity [34]: 95% | residual activity [35]: 100% | residual activity [36]: 100% | residual activity [37]: 91% | residual activity [38]: 100% | residual activity [39]: 100% | residual activity [40]: 100% | residual activity [41]: 92% | inhibition [42]: -0.12% | inhibition [43]: -2.86% | residual activity [44]: 95% | residual activity [45]: 100% | residual activity [46]: 100%

CC(=O)N1CCC(c2ccc(C(=O)NC(=N)N)cc2C(F)(F)F)CC1 [BI 9627]
inhibition [1]: 5.47% | residual activity [2]: 100% | residual activity [3]: 100% | residual activity [4]: 100% | residual activity [5]: 100% | residual activity [6]: 94% | residual activity [7]: 97% | residual activity [8]: 100% | inhibition [9]: 34% | residual activity [10]: 100% | residual activity [11]: 100% | residual activity [12]: 100% | residual activity [13]: 49% | residual activity [14]: 100% | residual activity [15]: 100% | residual activity [16]: 100% | residual activity [17]: 100% | residual activity [18]: 100% | residual activity [19]: 100% | IC50 [20]: 0.231 µM (not active) | residual activity [21]: 100% | residual activity [22]: 100% | residual activity [23]: 100% | residual activity [24]: 98% | residual activity [25]: 100% | residual activity [26]: 100% | residual activity [27]: 96% | residual activity [28]: 96% | residual activity [29]: 100% | residual activity [30]: 100% | residual activity [31]: 95% | residual activity [32]: 87% | residual activity [33]: 100% | residual activity [34]: 100% | residual activity [35]: 80% | residual activity [36]: 100% | residual activity [37]: 100% | residual activity [38]: 100% | residual activity [39]: 100% | residual activity [40]: 100% | residual activity [41]: 95% | inhibition [42]: -6.34% | inhibition [43]: 2.59% | residual activity [44]: 92% | residual activity [45]: 100% | residual activity [46]: 100%
